{
  "source": "patent US9863006B2",
  "about": "“Selective lysis of cells by ionic surfactants” (Biocartis NV, priority 2011, dated 2018)",
  "origin": "cited, not measured here",
  "settings": "room temperature",
  "data": [
    {"smiles": "CCCCCCCCCCCCOS(=O)(=O)[O-].[Na+]", "note": "[sodium dodecyl sulfate]", "values": [
      {"measurement": "time to cross the membrane", "value": "hours or days"}
    ]}
  ]
}
